# Measured values reported in a melting point compilation (Tetko et al.; mined from patent text by program, amines drawn as free bases though some values may be those of a salt).
row,melting point [°C],Compound
1,272 to 274,CN(C)Cc1ccc(-c2cc3c(Nc4ccc(OCc5ccccc5)cc4)ncnc3[nH]2)cc1
2,151 to 152,CCCCC(Cc1ccc(OCCCNC(=O)c2ccc(-c3ccccn3)cc2)cc1)C(=O)O (stereo unspecified)
3,213 to 215,Cc1cc(NC2=NCCN2)n(-c2ccc(F)cc2)n1
4,246 to 248,COc1ccc(-c2[nH]c3ccccc3c(=O)c2Cc2ccncc2)cc1
5,113 to 116,CCCC[C@H](NC(=O)[C@H](CC(C)C)NC(=O)c1coc2ccccc12)C(=O)CSCc1ccco1
6,92 to 94,Cn1c(=O)c(-c2ccccc2Cl)cc2cnc(NC3C4CN(Cc5ccccc5)CC43)nc21 (stereo unspecified)
7,171 to 172,Cn1ncc(/C=C/C(=O)Nc2ccc(OCc3cscn3)cc2)c1-c1ccc(F)cc1
8,87.5 to 89.5,Clc1ccc(CCC(Cn2ccnc2)OCc2ccc(Cl)c(Cl)c2)cc1 (stereo unspecified)
9,96 to 97,O=C(NCCSCc1ccccc1)c1c(Cl)cccc1Cl
10,157 to 158,CC(C)n1nc(-c2c(-c3ccccc3)nn3ccc(C(=O)NCCN(C)C)cc23)ccc1=O
11,300 to 301,Cn1cc(S(C)(=O)=O)c(=O)c2ccc(C(F)(F)F)cc21
12,187 to 191,O=C(c1ccccc1)c1ccc(Nc2ccccc2NC(=O)C(F)(F)F)cc1
13,89.9 to 91.8,O=C(NO)C1C2CCC(CC2)C1S(=O)(=O)c1ccc(Oc2ccccc2)cc1 (stereo unspecified)
14,280 to 281,O=c1[nH]c2ccc(-c3cccc([N+](=O)[O-])c3)cc2o1
15,235 to 237,Cc1ccc(CC2CCN(C(=O)C(=O)Nc3ccc4c(c3)CC(=O)N4)CC2)cc1
16,120 to 121,O=c1cc(-c2cccc(Cl)c2)oc2ccc(OCCCCCCN3CCC(O)CC3)cc12
17,180 to 183,O=C(CS(=O)(=O)c1ccccc1)NNC(=O)N1Cc2ccccc2Oc2ccc(Cl)cc21
18,168 to 170,CCCOc1ccc(CCCOc2ccc3c(c2)C=C(C(=O)O)CCS3(=O)=O)cc1
19,266 to 268,Cc1ccc(-c2ccc(Cl)cc2Cl)c(=O)[nH]1
20,226 to 228,CN(Cc1cccc2c1C(=O)N(C1CCC(=O)NC1=O)C2=O)C(=O)Nc1ccccc1 (stereo unspecified)
21,130 to 131,CC1(CCl)C(C(=O)OCC(Cl)(Cl)Cl)N2C(=O)C(NC(=O)Cc3ccccc3)C2S1=O (stereo unspecified)
22,135 to 148,Cc1nc(-c2ccc(C(=N)NO)cc2)sc1C(=O)N[C@H](C)[C@](O)(Cn1cncn1)c1ccc(F)cc1F
23,159 to 160,CS(=O)(=O)c1ccc(/C(=C(/CO)CCO)c2ccc(Cl)cc2)cc1

row,melting point [°C],Compound
1,90 to 92,CCOCCn1c(COc2ccc(CO)cc2)nc2ccccc21
2,198 to 200,COc1ccc(-n2c3ccccc3c3cc(C=C(C#N)c4cc(C(F)(F)F)cc(C(F)(F)F)c4)ccc32)cc1
3,85 to 86,COC(=O)C1CCC(OC2=C3N=c4ccccc4=C3C(Cc3ccc(F)cc3)C=C2)O1 (stereo unspecified)
4,212 to 215,CC(C)C1Sc2ccccc2NC(=O)C1NC(=O)C(F)(F)F (stereo unspecified)
5,249 to 250,O=C(Nc1ccccc1)N1CCc2c(cnc3[nH]nc(Br)c23)C1
6,206 to 209,COc1ccc(C(NC(=O)C(C)c2ccccc2)c2cccc(Nc3c(N)c(=O)c3=O)c2)cc1 (stereo unspecified)
7,133 to 135,C=Cc1cnc2c(NC(=O)c3c(Cl)cccc3Cl)cccc2c1CCO
8,101 to 103,CC(C)CCN1C(=O)C2(COc3cc(O)ccc32)c2ccccc21 (stereo unspecified)
9,130 to 134,Cc1cn(S(C)(=O)=O)c2c1C(=O)CC(c1ccccc1F)C2 (stereo unspecified)
10,136 to 137,COC1(c2cccc(OCc3ccc(-n4ccnc4C)cc3)c2)CCOCC1
11,73 to 75,CCC(c1ccc(C(=O)OC)cc1)C(C)NCC(O)c1ccc(O)c(CO)c1 (stereo unspecified)
12,165,Cc1cc(OCc2ccccc2)cc(C)c1NC(=O)CCl
13,144,CC(=O)COc1cc2c(c(Cl)c1Cl)C(=O)C(C)(c1ccccc1)C2 (stereo unspecified)
14,152 to 153,O=C(O)Cc1ccc(-n2cc(Cl)cn2)cc1Cl
15,82 to 85,COC(=O)[C@@]1(c2ccc(Br)cc2)CC1(c1ccccc1)c1ccccc1
16,220 to 222,CCn1nc2c(N)nc3ccccc3c2c1CCS(C)(=O)=O
17,320 to 323,O=C1CC(c2ccc(OCc3ccccc3)cc2)=Nc2ccc(N3CCOCC3)cc21
18,185 to 187,CC(=O)c1cn(Cc2ccc(F)cc2)c2ccccc2c1=O
19,150 to 151,CCCCc1nn(Cc2ccc(-c3ccccc3-c3nnn[nH]3)cc2)c(=O)n1Cc1ccc(-c2ccccc2-c2nnn[nH]2)cc1
20,120,CN(C)c1cccc(C(=O)Nc2ccc3ccc(Oc4ccccc4)nc3n2)c1
21,117 to 122,CCCCc1nc2c(c(=O)[nH]1)CN(C(=O)OCc1ccccc1)CC2
22,198 to 203,CCS(=O)(=O)c1ccc(C2=C(c3ccc(S(C)(=O)=O)cc3)OC(C)(C)C2=O)cc1

# More lines, now with the values behind:
row,Compound,melting point [°C]
1,Cc1nn2c(=O)c(CCCl)c(C)nc2s1,118
2,Cc1c(Cl)csc1-c1nc(-c2c(F)cccc2Cl)nn1C,117 to 118
3,CCOc1ccc(-c2ccc(C#CC3(O)CN4CCC3CC4)cc2)cc1 (stereo unspecified),255 to 256
4,N#CCc1nc(C(=O)c2ccc(Cl)cc2)no1,81 to 84
5,O=C1N=C(N2CCOCC2)SC1=Cc1cc(-c2ccc(O)c(C34CC5CC(CC(C5)C3)C4)c2)c(O)cc1O,306 to 310
6,Cc1cc([N+](=O)[O-])c(C)cc1Cc1cccc(C(F)(F)F)c1,75 to 77
7,CC(C)NC(=O)c1cc(-n2c(=O)cc(C(F)(F)F)n(C)c2=O)c(F)cc1Cl,146 to 149
8,NS(=O)(=O)Oc1cccc(I)c1,106 to 108
9,CC(C)(C)c1ccc2[nH]c(=O)c(-c3nnn[nH]3)cc2c1,280 to 286
10,Cc1csc2ccc3[nH]c4c(c3c12)CNCC4,234
11,Cc1cc2c(c3c1NC(=O)CC3)OC(CN=[N+]=[N-])C2 (stereo unspecified),146 to 149
12,CC(=O)N(C)CC#CCn1ccnc1,113 to 115
13,Cc1cc(Oc2ccc(S(C)(=O)=O)nc2)cc2cc(C3=NCC(CC(=O)NC[C@@H](C)O)S3)[nH]c12 (stereo partly specified),168 to 169
14,FC(F)(F)C(F)(F)C(F)(F)C(F)(F)C(F)(F)C(F)(F)C(F)(F)C(F)(F)C(F)(F)Br,30
15,CN(C)C=C1CCc2cnccc2C1=O,76 to 79
16,CC(C)C[C@@H](C(=O)O)N1C(=O)NC(C(F)(F)F)(C(F)(F)F)C1=O,154 to 156
17,N#CC1(Nc2ccccc2)CCN([C@H]2CCc3ccccc32)CC1,157 to 160
18,CC1=C(C#N)C(c2cccc([N+](=O)[O-])c2)C(c2nc(CCl)no2)=C(C)N1 (stereo unspecified),204 to 206
19,CC1(C2CCC3C4C=CC5=CC(=O)C6OC6C5(C)C4CCC32C)OCCO1 (stereo unspecified),137 to 138

row,Compound,melting point [°C]
1,COc1ccc(-c2[nH]c(=O)c3cc(OC)ccc3c2N2CCOCC2)cc1,139
2,CCNc1nnc2ccc(-c3cccc(N(C)C(=O)CC)c3)nn12,198 to 199
3,O=P(O)(O)C(O)(CCc1ccc(Cl)c(Cl)c1)P(=O)(O)O,187
4,Cc1c2c(c(C)c3c1NC(C)C3)OC(C)(C)C2 (stereo unspecified),87 to 88
5,CSc1ncc2cc(-c3c(Cl)cccc3Cl)c(=N)n(C)c2n1,198 to 200
6,C#Cc1ccc2c(c1)C(c1ccccn1)=NCc1c(C(=O)N(C)C)ncn1-2,193 to 194
7,COc1ccc(OC)c(OCCCCl)c1,48 to 50
8,O=C(O)CCn1c(=O)n2n(c1=O)C(C(=O)O)C=CC2 (stereo unspecified),172 to 175
9,CCCn1nc(C(=O)O)cc1CC(C)(C)NC(=O)OC(C)(C)C,151 to 152
10,CN1C(=O)Cc2ccc(Cl)cc21,116 to 117
11,COc1cccc2c1CCCC2n1cc[nH]c1=S (stereo unspecified),176 to 177
12,Cc1noc(NC(=O)NCCC2CCN(Cc3ccccc3)CC2)n1,138 to 139
13,CCOC(=O)c1csc(-c2cccnc2)n1,73 to 75
14,COc1cc(N2CCCN(C3CCN(C)CC3)CC2)ccc1Nc1ncc2ccc(-c3ccccc3OC)n2n1,71 to 80
15,CN(C)CC(=O)Nc1ccc2c(c1)C(=O)c1cc(NC(=O)CN(C)C)ccc1C2=O,218
16,COc1cc2c(cc1OC)-c1ncc(C(=O)O)c(=O)n1CC2,264 to 266
17,Cn1c(C#N)ccc1[N+](=O)[O-],86 to 87
18,O=C(Cl)Oc1c(CCl)cccc1CCl,71.5 to 73.5
19,CC1=C(C)CC(C(=O)O)OC1 (stereo unspecified),82 to 84

row,Compound,melting point [°C]
1,COC(=O)c1ccc2cc(CCc3cc4ccc(C(=O)OC)cc4o3)oc2c1,175 to 177
2,COC(=O)c1snc(-c2cc(OC)c(Cl)cc2F)c1N,121 to 124
3,COc1cc2c(c3c1OC(C)(C)C3)C(c1ccn(CC(=O)Nc3cccnc3)c(=O)c1)=NC(C)(C)C2,251 to 253
4,Cc1ccc(S(=O)(=O)OCC2CC(OS(=O)(=O)c3ccc(C)cc3)CN2S(=O)(=O)c2ccc(C)cc2)cc1 (stereo unspecified),134 to 135
5,O=C(O)c1ccc(CCOCCCCCCBr)s1,60 to 61
6,CNC1C(O)CC2C3CCc4cc(O)cc(C)c4C3CCC21C (stereo unspecified),215 to 231
7,CS(=O)(=O)N(Cc1cccnc1)Cc1ccc(Cl)cc1Cl,78 to 80
8,CC(C)(C)c1csc(-c2cc3cc(C=O)ccc3o2)n1,83 to 84
9,CC(C)(C)N1CC(=O)Nc2cccc(Cl)c21,198
10,CCOC(=O)C1Cc2c([nH]c3cccc(C#N)c23)CN1 (stereo unspecified),248
11,CC(C)(COc1ccc2ncnn2n1)CS(N)(=O)=O,181 to 184
12,CCC1(c2c[nH]cn2)Cc2ccc(N)cc2C1 (stereo unspecified),145 to 152
13,CC(S)C(=O)Nc1ccc(C2=NNC(=O)CC2C)cc1 (stereo unspecified),236 to 237
14,CCOC(=O)C(=O)Nc1cc(C#N)cc([N+](=O)[O-])c1,114 to 116
15,CC(C)(C)c1cc(C(=O)c2ccc(N)cc2)cc(C(C)(C)C)c1O,164 to 166
16,CSc1nc(=O)n(CCO)cc1F,161 to 162
17,CC(=NOCC1CC1)c1cc(Cl)ccc1NS(=O)(=O)C(F)(F)F,53 to 54
18,CCOc1nc2cccc(C(Br)Br)c2c(=O)o1,98 to 99
